Laboratory results: patent US20260000783A1, “ANTIBODY-DRUG CONJUGATE WITH IMPROVED THERAPEUTIC WINDOW” (priority 2018, published 2026)

How the values were obtained:
[1] = tested on: Hela cells; experiment: Cell viability assay (MTS) of HeLa cells with SO1861 + dianthin-EGF and PAMAM, PAMAM-conjugates, G4-dendron or chloroquine; type: cell-based, human; settings: positive control
Experimental: Hela cells were seeded in DMEM (PAN-Biotech GmbH) supplemented with 10% fetal bovine serum (PAN-Biotech GmbH) and 1% penicillin/streptomycin (PAN-Biotech GmbH), in a 96 well plate at 5,000 c/w in 100 μL/well and incubated overnight at 37° C. and 5% CO2. The next day 20× concentrated stocks of the PAMAM, PAMAM-conjugates, G4-dendron (prepared in Example 3) or chloroquine (Sigma Aldrich) samples were prepared in DMEM. The media was removed from the cell culture plate and replaced by 160 μL culture media, followed by the addition of 10 μL sample/well (from the 20× concentrated stocks) and a 45 min incubation at 37° C. […] Followed by 15 sec sonication and a brief re-heating at 50° C. for 1 min, while shaking at 1,250 rpm. Subsequently a serial dilution of SO1861 was prepared in PBS.
Scientific Multiskan FC plate reader (Thermo Scientific).

[2] = tested on: SK-BR-3, JIMT-1, MDA-MB-468, A431, CaSKi, HeLa, A2058; experiment: Control treatments on all cell lines, relative cell viability (Example 8); type: cell-based, human; settings: wide range of toxin concentrations, up to 100.000 pM (FIG. 14D)

Compound	fold increase in glycoside amount to observe 50% cell killing [1]	relative cell viability [2]
CCN(CC)CCCC(C)Nc1ccnc2cc(Cl)ccc12 (centres unmarked) [Chloroquine]	2 fold	
saporin		do not or hardly have any influence on cell viability
